Reference: paper PMC9855884, “Glycosylated Lipopeptides—Synthesis and Evaluation of Antimicrobial Activity and Cytotoxicity” (Biomolecules, 2023)
Where a SMILES comes first, the peptide text is derived from it. The star is where a group is joined. βGlcNAc = CC(=O)N[C@@H]1[C@@H](O)[C@H](O)[C@@H](CO)O[C@H]1*; Stearoyl = CCCCCCCCCCCCCCCCCC(=O)*

Test system: K. pneumoniae biofilm
Type: cell-based, Klebsiella pneumoniae
Conditions: 24 h
Description: The Acinetobacter baumannii ATCC BAA-1605, Enterococcus faecium ATCC 700221, Klebsiella aerogenes ATCC 13048, Klebsiella pneumoniae ATCC 700603, Pseudomonas aeruginosa ATCC 9027, Staphylococcus aureus ATCC 33591, Candida glabrata ATCC 15126, strains were acquired from the American Type Culture Collection (ATCC). All the strains were stored at −80 °C in Roti-Store cryo vials and were transferred into fresh Mueller–Hinton broth (MHB, Becton Dickinson, Warsaw, Poland) for bacteria or RPMI-1640 (Sigma-Aldrich, Steinheim, Germany) for fungi before the tests and incubated for 24 h at 37 °C. Then, the cultures were seeded on the Mueller–Hinton agar (BioMaxima, Lublin, Poland) or Sabouraud dextrose agar (SDA, BioMaxima, Lublin, Poland) plates, respectively, and incubated as just mentioned. These agar cultures were used for further microbiological assays. Cell densities for all assays were adjusted spectrophotometrically (Multiskan GO Microplate Spectrophotometer, Thermo Fisher Scientific, Vantaa, Finland) at 600 and 530 nm for bacteria and fungi, respectively.
The MBECs were determined as previously described, using 96-well polystyrene flat-bottom plates. For this purpose, 24 h cultures of microorganisms were diluted to obtain a final density of 5.0 × 10^5 CFU/mL and 2.0 × 10^5 CFU/mL of bacteria and fungi, respectively. Microorganisms were diluted in MHB or RPMI-1640 with 2% D-glucose (bacteria and fungi, respectively). Briefly, 100 µL of cell suspension was added into the test plates. After 24 h of incubation at 37 °C, the wells were rinsed three times with a phosphate buffer saline (PBS, pH 7.4) to remove non-adherent cells. Subsequently, 100 μL of the test compounds over the concentration range (1–512 μg/mL) were added to each well. After 24 h of incubation at 37 °C, 20 μL of a cell viability reagent was added (resazurin, 4 g/L; Sigma Aldrich, St. Louis, MO, USA). The MBEC was read after 1 h. The determined values were recorded as the lowest concentration at which the reduction of resazurin (from blue to pink) […]. All experiments were conducted in triplicate.

Compared with `CCCCCCCCCCCCCCCCCC(=O)N[C@@H](CCCNC(=N)N)C(=O)N[C@@H](CCCNC(=N)N)C(=O)N[C@@H](CO[C@@H]1O[C@H](CO)[C@@H](O)[C@H](O)[C@H]1NC(C)=O)C(N)=O` [Peptide 18, C18-RRS(GlcNAc)-NH2] (Stearoyl-Arg-Arg-Ser(βGlcNAc)-NH2), `CCCCCCCCCCCCCCCCCC(=O)N[C@@H](CO[C@@H]1O[C@H](CO)[C@@H](O)[C@H](O)[C@H]1NC(C)=O)C(=O)N[C@@H](CCCNC(=N)N)C(=O)N[C@@H](CCCNC(=N)N)C(N)=O` [Peptide 16, C18-S(GlcNAc)RR-NH2] (Stearoyl-Ser(βGlcNAc)-Arg-Arg-NH2) is 2-fold higher in MBEC: 128 µg/mL for the first, 256 µg/mL for the second.

`CCCCCCCCCCCCCCCCCC(=O)N[C@@H](CCCNC(=N)N)C(=O)N[C@@H](CCCNC(=N)N)C(=O)N[C@@H](CO)C(N)=O` [Peptide 9, C18-RRS-NH2] (Stearoyl-Arg-Arg-Ser-NH2) and `CCCCCCCCCCCCCCCCCC(=O)N[C@@H](CCCNC(=N)N)C(=O)N[C@@H](CO)C(=O)N[C@@H](CCCNC(=N)N)C(N)=O` [Peptide 8, C18-RSR-NH2] (Stearoyl-Arg-Ser-Arg-NH2) are the same in MBEC: 512 µg/mL for the first, 512 µg/mL for the second.

Going from `CCCCCCCCCCCCCCCCCC(=O)N[C@@H](CCCNC(=N)N)C(=O)N[C@@H](CO[C@@H]1O[C@H](CO)[C@@H](O)[C@H](O)[C@H]1NC(C)=O)C(=O)N[C@@H](CCCNC(=N)N)C(N)=O` [Peptide 17, C18-RS(GlcNAc)R-NH2] (Stearoyl-Arg-Ser(βGlcNAc)-Arg-NH2) to `CCCCCCCCCCCCCCCCCC(=O)N[C@@H](CO)C(=O)N[C@@H](CCCNC(=N)N)C(=O)N[C@@H](CCCNC(=N)N)C(N)=O` [Peptide 7, C18-SRR-NH2] (Stearoyl-Ser-Arg-Arg-NH2), the MBEC rises from 256 µg/mL to 512 µg/mL (2-fold).
